Data set [1] in a line: Antiulcerogenic (protective) action on the stomach, so-called Shay rat (pylorus ligature + acetylsalicylic acid), ulcer index. In kind it is in vivo. The settings on record: rat, in vivo; LD50 i.v. mice / ED50 p.o. rats; read-out: TQ LD50/ED50 (therapeutic quotient). The method, then: (§1) ED50 = dose which reduces the ulcer index by 50% in the treated grou
(§2) compared with the control group
(§3) The antiulcerogenic action was tested in accordance with the method using the so-called Shay rat:
(§4) Rats (female, 180 to 200 g, 4 animals per cage on a high grid) which had been fasted for 24 hours were subjected to ulcer provocation by pylorus ligature (under diethyl ether anaesthesia) and oral administration of 100 mg/10 ml/kg of acetylsalicylic acid. The substances to be tested are administered orally (10 ml/kg) 1 hour before the pylorus ligature. The wound is closed by means of Michel clamps. 4 hours thereafter, the animals are killed under ether anaesthesia by atlas dislocation, and the stomach is removed. The stomach is opened longitudinally and fixed to a cork tile after the amount of gastric juice secreted (volume) has been determined; the number and size (=diameter) of ulcers present are determined with a stereomicroscope with 10-fold magnification. The product of the degree of severity (according to the following rating scale) and the number of ulcers serves as the individual ulcer index. […]
(§5) ______________________________________
(§6) The reduction in the average ulcer index of each treated group compared with that of the control group (=100%) serves as a measure of the antiulcerogenic effect. The ED50 designates the dose which reduces the average ulcer index by 50%.

Data set [2] deals with stomach (Shay rat, gastric ulcers). The data set is described as above. In kind it is in vivo. The settings on record: for ED50: Rattus norvegicus, po, peroral administration to rats, 1 hour before pylorus ligature, dose which reduces the ulcer index by 50% compared with control; for dose/action curve (antiulcerogenic action): compound 1 even at 300 mg/kg. The method, then: as §1, §2, §3, §4, §5, §6

Another data set has as its system Gastric secretion. In words: Inhibition of gastric secretion in the Shay rat. In kind it is in vivo. The note with it: in rats, 4 hours after administration of the antiulcerogenic ED50. The method, then:
^(+) % inhibition = inhibition of the gastric secretion (in %) 4 hour
after administration of the antiulcerogenic ED50
Rats (female, 180 to 200 g, 4 animals per cage on a high grid) which had been fasted for 24 hours were subjected to ulcer provocation by pylorus ligature (under diethyl ether anaesthesia) and oral administration of 100 mg/10 ml/kg of acetylsalicylic acid. The substances to be tested are administered orally (10 ml/kg) 1 hour before the pylorus ligature. The wound is closed by means of Michel clamps. 4 hours thereafter, the animals are killed under ether anaesthesia by atlas dislocation, and the stomach is removed. The stomach is opened longitudinally and fixed to a cork tile after the amount of gastric juice secreted (volume) has been determined; the number and size (=diameter) of ulcers present are determined with a stereomicroscope with 10-fold magnification. The product of the degree of severity (according to the following rating scale) and the number of ulcers serves as the individual ulcer index.

Data set [3] in a line: Determination of acute toxicity (LD50) in mice. The settings on record: mouse, in vivo; intravenous administration to mice; 7 days observation. The method, then: LD50 = dose at which 50% of the animals
The toxicity investigations are carried out on female NMRI mice (body weight: 22 to 26 g). The animals (5 animals per dose) receive feed and water ad libitum. Various doses of the substances are administered intravenously (injection time: 1 minute). The observation period is 7 days. The LD50 (the dose at which 50% of the animals die) is determined by means of linear regression.

SMILES strings stand for the structures.

What is called ED50 is the midpoint of the dose-response relation. By LD50 is commonly meant the dose at which mortality reaches 50%. A high value points to a less toxic substance.

Turning to `CC1(C)[C@@H](OC(=O)CCC(=O)O)CC[C@]2(C)[C@H]3C(=O)C=C4[C@@H]5C[C@@](C)(C(=O)O)CC[C@]5(C)CC[C@@]4(C)[C@]3(C)CC[C@@H]12` [compound 1, carbenoxolone, reference compound], the selectivity ratio in data set [1] was determined as 4.1. In data set [2], the median effective dose (ED50) is around 70 mg/kg. The “dose/action curve (antiulcerogenic action)” value in data set [2] (oral, rats) is “very severely flattened so that no substantial increase in the ulcerogenic action can be achieved even at 300 mg/kg”. In addition, the “Gastric secretion % inhibition” value with Gastric secretion is 7%.
Regarding `CN1CCN(CC(=O)N2c3ccccc3NC(=O)c3cscc32)CC1` [compound 2, 9,10-dihydro-4-[(4-methylpiperazin-1-yl)acetyl]-4H-thieno[3,4-b][1,5]benzodiazepin-10-one], the selectivity ratio in data set [1] was 76. For the same compound, in data set [2] (10 mg/kg, oral, rats), the “inhibition effects (antiulcerogenic action)” value was “up to 95%”. Besides, the ED50 in data set [2] was determined as 2.5 mg/kg. In addition, in data set [2] (oral, rats), the “dose/action curve (antiulcerogenic action)” value is recorded as “strictly dependent on the dose”. The “Gastric secretion % inhibition” value in the data set on Gastric secretion came to 35%. Further, the LD50 at 168 h in data set [3] turned out to be 190 mg/kg.

For the origin of these results see patent US4381301A, “Substituted tricyclic thieno compounds, their synthesis, their use, their compositions and their medicaments” (BYK Gulden Lomberg Chemische Fabrik GmbH, priority 1980, dated 1983).
